In patent US10023565B2, “N,N′ substituted piperidinamine compounds, and preparation method and usage thereof” (Institute of Pharmacology and Toxicology Academy of …, priority 2013, dated 2018):
pKd: −log10 of the molar value.

Tests used:
[1] = tested on: MDA-MB-361; test: Antitumor bioactivity evaluation, breast cancer cells (ATPlite); format: cell-based; conditions: Homo sapiens, test sample 5 μM, 72 hours, read-out: Inhibitory Rate % MDA-MB-361
Procedure: (§1) Antitumor bioactivity evaluation of the compounds of Examples according to the method described below
(§2) Cells plating: a 100 mm culture dish with overgrown adherent cells was digested with 1 ml 0.25% trypsin (GIBCO) at 37° C. for 5 min, and the reaction was terminated with 2 ml culture medium (containing 10% FBS, GIBCO). The cells were scattered and collected, after counting, diluted to 1×10^5 cells/ml, and seeded into a 96-well plate at 50 μl/well, 5000 cells/well, excluding the peripheral circle of wells in which no cell was added, but PBS was added, 60 wells in total, and then incubated at 37° C. for 24 hours for adhering.
(§3) Addition of the compound and lapatinib: the test sample was diluted to a final concentration of 5 μM, and the culture medium with the corresponding compound solvent concentration was filled in the control well, the compound solvent concentration was kept consistent in each well, 5 parellel wells were set for each concentration, 25 μl each well, 25 μl culture medium (in combined group, 25 μl lapatinib was added till a final concentration of 1 μM) supplemented, followed by incubation at 37° C. for 72 hours.
(§4) Test after incubation at 37° C. for 72 hours: 50 μL of ATPlite kit substrate solution was added in each well, and vibrated for 3 min, followed by placing aside in darkness for 10 min, and then supernatant 100 μl/well was taken and placed on aluminescence test plate; the luminescence test plate that has been fully incubated was placed in a luminescence test instrument, to read luminescence value.
(§5) 1. Cell survival rate (%)=Experimental group RLU/control group RLU×100%. The experimental data were subjected to data analysis and processing by utilizing GraphPad software.

[2] = tested on: SK-BR3; test: as above; format: cell-based; conditions: Homo sapiens, SK-BR-3; test sample 5 μM, 72 hours; read-out: Inhibitory Rate % SK-BR3
Procedure: as §1, §2, §3, §4, §5

[3] = tested on: SK/Lap^R1.0; test: as above; format: cell-based; conditions: Homo sapiens; test sample 5 μM, 72 hours; read-out: Inhibitory Rate % SKLap^R1.0
Procedure: as §1, §2, §3, §4, §5

[4] = tested on: BT474; test: as above; format: cell-based; conditions: Homo sapiens, BT-474; test sample 5 μM, 72 hours; read-out: Inhibitory Rate % BT474
Procedure: as §1, §2, §3, §4, §5

[5] = tested on: MDA-MB-453; test: as above; format: cell-based; conditions: Homo sapiens, test sample 5 μM, 72 hours, read-out: Inhibitory Rate % MDA-MB-453
Procedure: as §1, §2, §3, §4, §5

[6] = target: T1, Hsp70 (Homo sapiens, UniProt P0DMV8); test: Measurement of affinity between compounds and Hsp70 (SPR, BIACORE T100); format: binding
T1 construct: purchased Enzo Life Sciences ADI-ESP-550-D
T1 sequence (P0DMV8 whole entry): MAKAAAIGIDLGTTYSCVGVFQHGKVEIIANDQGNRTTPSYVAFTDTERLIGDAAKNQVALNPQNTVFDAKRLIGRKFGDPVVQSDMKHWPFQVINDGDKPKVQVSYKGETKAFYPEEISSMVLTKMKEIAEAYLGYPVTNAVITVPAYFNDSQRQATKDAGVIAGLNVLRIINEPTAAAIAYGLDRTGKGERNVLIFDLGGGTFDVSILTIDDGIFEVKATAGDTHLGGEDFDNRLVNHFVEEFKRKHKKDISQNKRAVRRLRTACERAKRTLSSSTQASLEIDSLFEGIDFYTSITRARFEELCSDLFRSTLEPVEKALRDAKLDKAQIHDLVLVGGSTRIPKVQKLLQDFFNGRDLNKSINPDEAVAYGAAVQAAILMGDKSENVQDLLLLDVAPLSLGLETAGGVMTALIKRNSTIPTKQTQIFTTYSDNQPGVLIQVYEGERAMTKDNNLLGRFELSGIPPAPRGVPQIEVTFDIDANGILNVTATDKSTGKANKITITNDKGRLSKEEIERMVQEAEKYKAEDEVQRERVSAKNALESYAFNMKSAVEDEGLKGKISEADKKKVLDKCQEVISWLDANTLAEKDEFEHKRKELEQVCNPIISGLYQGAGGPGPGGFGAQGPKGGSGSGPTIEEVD
Procedure: Instrument for measuring the affinity between Example compounds and Hsp70 is BIACORE T100 Biomolecular Interaction Analysis (GE, USA), and the positive control drug is VER-155008 that is well-recognized as Hsp70 inhibitor now, and, on the basis of the measured results, according to binding characteristics between the compounds and protein, the binding constant (equilibrium dissociation constant KD) between drugs and protein is calculated by selecting steady state model with the formula: Conc*Rmax/[conc+KD]+offset.
1. Instrument: BIACORE T100 Biomolecular Interaction Analysis (GE, USA)
2. Reagents: PBS Buffer (×10), P20, CM5 chip (GE, USA), Hsp70 (human, ADI-ESP-550-D), manufactured by Enzo Life Sciences.
30 mM mother liquor of the compound was formulated with DMSO, which was diluted to 2 mM application solution with DMSO before use. 5 μl of the application solution was taken and diluted with 95 μl 1.05×PBS to 100 μM, and then diluted in turn with PBS containing 5% DMSO to […]. PBS containing 5% DMSO was used as solvent control.
Hsp70 protein was diluted with 10 mmol/L sodium acetate buffer solution (pH 5.0) to 30 μg/ml, and coupled directly on a hydrophilic carboxylmethyl dextran matrix sensor chip M5 through normalized primary amine coupling reaction, RU=11209, and then the chip was balanced for 1-2 h with PBS Buffer at […].
At a flow rate of […], with PBS containing 5% DMSO as mobile phase, at 25° C., the compound was introduced in the sequence of 0.003, 0.01, 0.03, 0.1, 0.3, 1, 3 and 10 μM, with binding time of 90 seconds, and dissociation time of 120 seconds.
According to binding characteristics between the compounds and protein, the binding constant (equilibrium dissociation constant KD) between drugs and protein was calculated by selecting steady state model with the formula: Conc*Rmax/[conc+KD]+offset.

[7] = tested on: BT/Lap^R1.0; test: Antitumor bioactivity evaluation, breast cancer cells (ATPlite); format: cell-based, human; conditions: Homo sapiens; test sample 5 μM, 72 hours; read-out: Inhibitory Rate % BT/Lap^R1.0
Procedure: as §1, §2, §3, §4, §5

pKd ([6]; steady state model, 25° C., read-out: KD (binding constant between the compounds and Hsp70)) | Compound | inhibition at 5 µM [1] [%] | inhibition at 5 µM [2] [%] | inhibition at 5 µM [3] [%] | inhibition at 5 µM [4] [%] | inhibition at 5 µM [5] [%] | KD compared with positive control drug VER-155008 [6] | inhibition at 5 µM [7] [%]
6.70 | Fc1ccc(CNC2CCN(Cc3cnc(Cl)s3)CC2)cc1 [Example 12, N-(4-fluorobenzyl)-N-{1-[(2-chlorothiazol-5-yl)methyl]piperidin-4-yl}amine] | 4.8 | 22.4 | 4.4 | 5.4 | 0.1 | KD values equivalent to that of the positive control drug VER-155008 | 9.1
 | COc1nccc(N2CCC(N(C)Cc3cc(Cl)ccc3Cl)CC2)n1 [Example 52, N-methyl-N-(2,5-dichlorobenzyl)-N-[1-(2-methoxypyrimidin-4-yl)piperidin-4-yl]amine] | 64.1 | 87.6 | 80.7 | 74.2 | 68.7 |  | 68.1
 | COc1nccc(N2CCC(N(C)Cc3ccc(Cl)c(Cl)c3)CC2)n1 [Example 53, N-methyl-N-(3,4-dichlorobenzyl)-N-[1-(2-methoxypyrimidin-4-yl)piperidin-4-yl]amine] | 41.7 | 27.7 | 16.8 | 52.9 | 60.2 |  | 35.8
 | COc1nccc(N2CCC(N(C)Cc3c(F)cccc3Cl)CC2)n1 [Example 54, N-methyl-N-(2-fluoro-6-chlorobenzyl)-N-[1-(2-methoxypyrimidin-4-yl)piperidin-4-yl]amine] | 48.3 | 27.7 | 17.2 | 65.4 | 64.7 |  | 62.4
 | COc1nccc(N2CCC(N(C)Cc3cccc(Cl)c3)CC2)n1 [Example 55, N-methyl-N-(3-chlorobenzyl)-N-[1-(2-methoxypyrimidin-4-yl)piperidin-4-yl]amine] | 23.2 | 18.5 | 15.1 | 36.2 | 56.7 |  | 26.2
 | COc1nccc(N2CCC(N(C)Cc3cccc(F)c3)CC2)n1 [Example 56, N-methyl-N-(3-fluorobenzyl)-N-[1-(2-methoxypyrimidin-4-yl)piperidin-4-yl]amine] | 8.5 | 9.2 | 3.9 | 9.9 | 27.9 |  | 10.5
 | COc1cc(N2CCC(N(C)Cc3ccccc3Cl)CC2)ncn1 [Example 58, N-methyl-N-(2-chlorobenzyl)-N-[1-(6-methoxypyrimidin-4-yl)piperidin-4-yl]amine] | 20.3 | 13.5 | 29 | 27.7 | 46.7 |  | 18.9
 | COc1cc(N2CCC(N(C)Cc3ccc(C)cc3)CC2)ncn1 [Example 59, N-methyl-N-(4-methylbenzyl)-N-[1-(6-methoxypyrimidin-4-yl)piperidin-4-yl]amine] | 10.6 | 20.6 | 22 | 5 | 13.4 |  | 8
 | COc1cc(N2CCC(N(C)Cc3c(Cl)cccc3Cl)CC2)ncn1 [Example 60, N-methyl-N-(2,6-dichlorobenzyl)-N-[1-(6-methoxypyrimidin-4-yl)piperidin-4-yl]amine] | 30.8 | 22.8 | 19.2 | 53.6 | 65.1 |  | 52.5
 | COc1cc(N2CCC(N(C)Cc3ccc(Cl)c(Cl)c3)CC2)ncn1 [Example 61, N-methyl-N-(3,4-dichlorobenzyl)-N-[1-(6-methoxypyrimidin-4-yl)piperidin-4-yl]amine] | 6.5 | 16.1 | 28 | 9.8 | 12.7 |  | 9.2
 | COc1cc(N2CCC(N(C)Cc3ccc(F)cc3)CC2)ncn1 [Example 62, N-methyl-N-(4-fluorobenzyl)-N-[1-(6-methoxypyrimidin-4-yl)piperidin-4-yl]amine] | 4.9 | 7.6 | 5.7 | 7.8 | 5 |  | 8.1
 | COc1cc(N2CCC(N(C)Cc3cccc(Cl)c3)CC2)ncn1 [Example 63, N-methyl-N-(3-chlorobenzyl)-N-[1-(6-methoxypyrimidin-4-yl)piperidin-4-yl]amine] | 25.6 | 12.6 | 24.8 | 11.9 | 23.8 |  | 9.4
 | COc1cc(N2CCC(N(C)Cc3c(F)cccc3Cl)CC2)ncn1 [Example 64, N-methyl-N-(2-fluoro-6-chlorobenzyl)-N-[1-(6-methoxypyrimidin-4-yl)piperidin-4-yl] amine] | 39.6 | 15.5 | 16.6 | 45.9 | 59.4 |  | 48.5
 | COc1cc(N2CCC(N(C)Cc3ccccc3C#N)CC2)ncn1 [Example 65, N-methyl-N-(2-cyanobenzyl)-N-[1-(6-methoxypyrimidin-4-yl)piperidin-4-yl]amine] | 42.7 | 23.3 | 16.8 | 65.8 | 66.1 |  | 62.2
 | COc1cc(N2CCC(N(C)Cc3ccc(C#N)cc3)CC2)ncn1 [Example 66, N-methyl-N-(p-cyanobenzyl)-N-[1-(6-methoxypyrimidin-4-yl)piperidin-4-yl]amine] | 20.3 | 17.3 | 8.8 | 25.1 | 46.1 |  | 16.9
 | COc1cc(N2CCC(N(C)Cc3cc(Cl)ccc3Cl)CC2)ncn1 [Example 67, N-methyl-N-(2,5-dichlorobenzyl)-N-[1-(6-methoxypyrimidin-4-yl)piperidin-4-yl]amine] | 27.6 | 29.2 | 9.4 | 45.9 | 61.1 |  | 32.1
 | COc1cc(N2CCC(N(C)Cc3cccc(F)c3)CC2)ncn1 [Example 68, N-methyl-N-(3-fluorobenzyl)-N-[1-(6-methoxypyrimidin-4-yl)piperidin-4-yl]amine] | 8.4 | 5.2 | 30.1 | 5.4 | 9.4 |  | 5.6
 | CS(=O)(=O)CCNCc1ccc(-c2ccc3ncnc(Nc4ccc(OCc5cccc(F)c5)c(Cl)c4)c3c2)o1 [lapatinib, reference compound] | 40.2 | 79 | 10.4 | 75.6 | 42.6 |  | 18
